Values joined by “and” are separate entries in the source; they are usually repeats but may differ in a detail not shown here. Equal entries are not always repeated. Where two headings read alike, the source gives them in different places.
What was measured:
[1] = molecular target: axoplasmic motors (squid giant axon); assay: cell-based or functional assay
giant axon of the squid = assay: Transport of peptide- or protein-conjugated fluorescent beads injected into the squid giant axon, confocal time-lapse; assay type: cell-based, squid (Loligo pealei); conditions: for Max. Velocity / Ave. Velocity (instantaneous): beads conjugated to peptide/protein; for Ave. Velocity (instantaneous): number of moves in brackets; for transport behaviour of conjugated beads in the axon (in words): co-injected with other beads into the same axon; for beads leaving the injection site per minute: 10^6 beads injected
Protocol: The giant axon was obtained from squid (Loligo pealei) at the Marine Biological Laboratory, Woods Hole, Mass. (46). Red and green beads, each conjugated to a different peptide (1.5 nl at […]), were loaded into a mercury micropipette either as a mixture or in equal volumes separated by oil (Bearer, E. L., et al., (2000) Proc Natl Acad Sci USA 97, 8146-50; Terasaki, M., S. et al., (1995) Proc Natl Acad Sci U S A 92, 11500-3; Jaffe, L. A. & Terasaki, M. (2004) Methods Cell Biol 74, 219-42, FIG. S1). For each pair of beads the order of injection was alternated such that each color would have an opportunity to recruit motors first.
Carboxylated microspheres (beads, 0.1 μm diameter) with red (580/605 nm) and green (505/515 nm) fluorescence (Invitrogen) were washed through a Low Binding Durapore filter (100 nm cut-off, Millipore). Uncoated beads were diluted in motility buffer (Brady, S. et al., (1982) Science 218, 1129-31) and injected without further treatment.
Custom synthesized peptides (Aves Labs, Inc) were cross-linked to beads via their amino terminus to allow presentation of the carboxy end of the peptide to the cytoplasm, mimicking the physiological orientation of APP. APP constructs (C99 and APP-680) were generated by PCR from human APP-YFP in pShuttleCMV (E.-M. Mandelkow and Jacek Biernat, Max Planck Institute, Hamburg, Germany (Stamer, K., V. et al., (2002) J Cell Biol 156, 1051-63)). APP-YFP is actively transported in neurons (Stamer et al., supra). For C99, the YFP moiety was replaced with mRFP (Campbell, R. E., et al., (2002) Proc Natl Acad Sci USA 99, 7877-82.) and for APP-680 with GFP. Each construct was cross-linked to a bead of similar spectrum as the fluorescent protein, and conjugated beads individually checked for monochromic emission by confocal. […] Accuracy of all sequences was confirmed by sequencing. Recombinant protein was generated in PC12 cells and purified by anti-fluorescent protein affinity columns (Vector Labs). Protein concentrations were determined by Bio-Rad protein assay, and composition and purity determined by SDS-PAGE.
Peptides or recombinant proteins (20 μl of a 2 mg/ml stock) were mixed in 300 μl of 50 mM MES buffer with 10 μl of 2% beads for 15 min. Cross-linker (1-(3-dimethylaminopropyl)-3-ethylcarbodiimide hydrochloride; EDAC, Molecular Probes) was added to a concentration of 10 μg/ml and the solution adjusted to pH 6.5 with 1M NaOH. After 5 hr the reaction was quenched by adding 2M glycine for a final of 0.1M. Conjugation was confirmed by analyzing peptide concentrations before and after by protein assay. Protein:bead ratio was adjusted that equivalent molar amounts of each protein would be conjugated to the beads. Efficiency of conjugation was relatively similar for all peptides. Binding sites on the beads (10^6) were saturated by using 300-1000 fold excess peptide. For C99 and APP-680, protein concentration was adjusted so that 3,000 copies per bead were conjugated to the surface and unoccupied sites blocked with glycine.
Detection parameters were set to ensure that each color was uniquely detected in its appropriate channel by imaging beads on coverslips with the Zeiss LSM 510 Laser Scanning Confocal Microscope. Fluorescent bead movements in the axon were collected with 10× Plan Neofluor 0.3NA air, and 40× Achroplan 0.8NA water correctible objectives. Green and red fluorescence and phase images were collected simultaneously using Zeiss LSM510 multi-tracking.
Rates and trajectories of APP-C beads were measured by stepping through the frames in either the Zeiss LSM browser or NIH ImageJ (http://rsb.info.nih.gov/nih-image/). Only particles moving into and out of a frame were included. Rates of moving particles were statistically analyzed and graphed using Microsoft Excel.

kinesin 3 (Kif1a) = molecular target: T1, kinesin 3 (Kif1a) (Rattus norvegicus, UniProt F1M4A4); assay: Peptide-bead pull-down from rat brain extract, Western blot for kinesin 3; assay type: binding; conditions: Western blot of beads and supernatants
T1 construct: tissue Pelco; host or cells: rat brain cortex extract
Protocol: (§1) Rat brain extract was prepared from frozen rat brain (Pelco). Rat brain was cut from a frozen block of cortex, weighed, and solubilized in 1% Triton and buffer with sonication (3 times 1 sec bursts with a Branson sonicator set at microtip 4). After clarifying centrifugation at 15,000×g for 15 min, 10 μl of extract in pulldown buffer (Lazarov et al. 2005, supra) was layered over carboxylated beads conjugated to various peptides according to the manufacturer's instructions (Dynal).

giant axon = assay: Comparison of velocity of JIP and APP peptide beads and carboxylated negative charge beads in the giant axon (Metamorph); assay type: cell-based, squid
Protocol: (§2) JIP peptide was conjugated to 100 nm fluorescent nanospheres (beads) following the protocol described in Example 1. Washed conjugated beads were injected into a freshly dissected giant squid axon and transport imaged by confocal microscopy.
Movements of beads conjugated to APP-C, JIP, or unconjugated (negative charge) after injection in the axon were measured using Metamorph imaging software (Molecular Devices). Average velocity of JIP beads was 20% faster than APP or negative charge. As is known, negative charge beads are transported in the axon but less frequently than peptide-conjugated beads.
The different surfaces of the beads influence the average rate of movements. In this experiment, movements between frames were measured only when beads moved into and out of the frame.

giant squid axon = assay: JIP peptide-coated bead transport in giant squid axon, confocal microscopy; assay type: cell-based; conditions: injection site imaged at 0 and 55 min
Protocol: as §2

kinesin 1 heavy chain = assay: Peptide-bead pull-down from rat brain extract, Western blot for kinesin 1; assay type: binding; conditions: Western blot of beads and supernatants
Protocol: as §1

[2] = molecular target: axoplasmic motors (squid giant axon); assay: cell-based or functional assay; remark: listed apart in the source

T1 sequence (F1M4A4 whole entry): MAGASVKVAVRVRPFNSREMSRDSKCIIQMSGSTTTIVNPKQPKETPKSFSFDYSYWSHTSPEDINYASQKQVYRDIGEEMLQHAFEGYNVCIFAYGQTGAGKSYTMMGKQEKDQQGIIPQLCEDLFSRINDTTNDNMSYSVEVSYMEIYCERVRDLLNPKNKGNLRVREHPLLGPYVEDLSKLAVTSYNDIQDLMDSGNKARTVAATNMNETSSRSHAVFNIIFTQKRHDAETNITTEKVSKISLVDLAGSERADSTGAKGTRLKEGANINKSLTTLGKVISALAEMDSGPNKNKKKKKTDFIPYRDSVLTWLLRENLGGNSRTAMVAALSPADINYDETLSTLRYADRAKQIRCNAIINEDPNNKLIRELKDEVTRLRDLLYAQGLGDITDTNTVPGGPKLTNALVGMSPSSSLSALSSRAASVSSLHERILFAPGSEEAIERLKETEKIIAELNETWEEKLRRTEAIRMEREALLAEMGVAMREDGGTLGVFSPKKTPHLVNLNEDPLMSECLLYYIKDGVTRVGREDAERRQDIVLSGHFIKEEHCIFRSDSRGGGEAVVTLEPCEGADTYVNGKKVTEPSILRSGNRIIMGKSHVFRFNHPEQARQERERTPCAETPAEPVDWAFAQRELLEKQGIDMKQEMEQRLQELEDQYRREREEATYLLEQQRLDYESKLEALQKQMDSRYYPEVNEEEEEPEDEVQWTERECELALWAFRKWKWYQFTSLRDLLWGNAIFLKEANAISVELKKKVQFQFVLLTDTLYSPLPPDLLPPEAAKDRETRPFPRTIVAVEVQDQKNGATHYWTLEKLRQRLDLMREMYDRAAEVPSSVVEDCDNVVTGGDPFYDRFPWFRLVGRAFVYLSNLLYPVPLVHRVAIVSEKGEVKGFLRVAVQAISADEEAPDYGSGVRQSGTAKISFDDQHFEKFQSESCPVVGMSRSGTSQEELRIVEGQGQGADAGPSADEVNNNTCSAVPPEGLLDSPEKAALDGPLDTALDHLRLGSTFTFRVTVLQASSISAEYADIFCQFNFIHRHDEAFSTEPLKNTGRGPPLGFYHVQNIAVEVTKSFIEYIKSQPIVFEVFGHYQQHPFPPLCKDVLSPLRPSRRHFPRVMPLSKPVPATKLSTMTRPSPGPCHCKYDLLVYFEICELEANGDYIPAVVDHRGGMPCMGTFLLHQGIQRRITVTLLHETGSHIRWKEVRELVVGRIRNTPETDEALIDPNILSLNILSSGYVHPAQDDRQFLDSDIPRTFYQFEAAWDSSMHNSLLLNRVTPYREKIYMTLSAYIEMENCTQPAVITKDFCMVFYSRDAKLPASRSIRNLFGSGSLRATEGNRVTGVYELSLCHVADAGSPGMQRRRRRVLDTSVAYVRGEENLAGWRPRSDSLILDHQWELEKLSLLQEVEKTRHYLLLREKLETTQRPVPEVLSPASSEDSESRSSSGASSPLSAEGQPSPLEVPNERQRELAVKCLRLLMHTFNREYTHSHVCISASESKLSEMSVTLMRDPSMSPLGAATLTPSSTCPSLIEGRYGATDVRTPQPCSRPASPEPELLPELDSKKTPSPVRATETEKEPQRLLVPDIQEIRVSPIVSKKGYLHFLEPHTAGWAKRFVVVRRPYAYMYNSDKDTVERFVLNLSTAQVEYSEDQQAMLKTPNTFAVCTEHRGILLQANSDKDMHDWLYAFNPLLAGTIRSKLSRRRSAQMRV

C99, a polypeptide containing the C-terminal 99 amino acids of human APP (with mRFP in place of YFP) (from UniProt P05067 597-695)
percent of beads that move (squid giant axon, no peptide) [1]: 39.5%
percent of beads that move after pre-injection of soluble APP-C peptide [1]: 10.3%

C99: recombinant C-terminal 99 amino acids of human APP with mRFP, full cytoplasmic domain; 3,000 copies per 100 nm bead
percent of beads that move, with peptide (giant axon of the squid; axon pre-injected with soluble APP-C peptide, average of 3 100-frame videos): 10.3%+/−4.4
Max. Velocity (giant axon of the squid): 1.46 μm/s
Ave. Velocity (instantaneous) (giant axon of the squid): 0.66+/−0.08 μm/s and 0.66 +/− 0.08 (194) μm/s
transport behaviour of conjugated beads in the axon (in words) (giant axon of the squid): both types of beads were transported
percent of beads that move (giant axon of the squid; without peptide, moving = translocated >3 consecutive frames, average of 3 100-frame videos, within 500 μm of injection site): 39.5%+/−4.5

FVE YTC PTE DIY LE (FVEYTCPTEDIYLE) [JIP-1]
pull-down of kinesin 3 (Kif1a) from brain extract (kinesin 3 (Kif1a)): preferentially pulls down kinesin 3 (Kif1a)
average velocity faster than APP or negative charge beads (giant axon): 20%
speed relative to negative charge beads (in words) (giant axon): almost twice as fast
Max velocity (giant axon; beads in the giant axon): 0.96 μm/sec
Ave velocity (giant axon; instantaneous velocity of beads in the axon, only beads moving into and out of the frame): 0.5 +/− 0.01 μm/sec
transport of JIP beads in the axon (in words) (giant squid axon): a stream of beads can be seen heading towards the synapse

GEPYFEMNYNTKFQQ (listed as Homo sapiens) [APP-C^j, reference compound]
beads leaving the injection site per minute (giant axon of the squid): None

GYENPTYKFFEQMQN (listed as Homo sapiens) [APP-C, tested conjugated to beads or as soluble peptide]
Max. Velocity (giant axon of the squid): 0.9 μm/s
Ave. Velocity (instantaneous) (giant axon of the squid): 0.41 +/− 0.07 (227) μm/s
pull-down of kinesin 1 heavy chain from brain extract (kinesin 1 heavy chain): preferentially bind to kinesin 1 heavy chain

GYENPTYKYFE-MQN (GYENPTYKYFEMQN; listed as Loligo pealei) [APP-C (squid)]
Max. Velocity (giant axon of the squid): 0.9 μm/s
Ave. Velocity (instantaneous) (giant axon of the squid): 0.53 +/− 0.09 (54) μm/s

HMNCQNGKWDSDPSGTKTCI (listed as Homo sapiens) [APP-N, reference compound]
beads leaving the injection site per minute (giant axon of the squid): ~0.001 ×10^3 per minute
transport behaviour of conjugated beads in the axon (in words) (giant axon of the squid): remained stationary at the injection site

B1: APP-C peptide (hAPP-C, final 15 amino acids of the cytoplasmic C-terminus of human/rat APP, aa 681-695 of APP695) (peptide)
peptide: GYENPTYKFFEQMQN
percent of beads that move (squid giant axon, no peptide) [2]: 36%
percent of beads that move after pre-injection of soluble APP-C peptide [2]: 0%

From patent publication US20080249024A1, “Peptides facilitating or inhibiting a nterograde transport” (priority 2006, published 2008)
